Data as given in patent publication US12495798B2, “Nicotinamide compound and herbicidal composition comprising compound” (KOREA RESEARCH INSTITUTE OF CHEMICAL TECHNOLOGY, priority 2019, dated 2025).

How the values were obtained:
Type in all cases: in vivo
indian jointvetch [1] = test: Herbicidal activity test against upland field weeds (foliar treatment test); design: key to Foliar treatment herbicidal activity, Indian jointvetch: 0 (no control); 100 (complete control); settings: 50 g ai/ha, scale 0-100
In short: (§1)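 Weeds were raised from seed or rootstocks in horticultural soil in a greenhouse (30±5° C., 14/10 h light/dark), then foliage was hand-sprayed with compound at 50 or 75 g a.i./ha in 50% acetone with 0.1% Tween-20. Control was scored visually 0–100 against untreated plants after 14 days, or 21 if needed.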

sorghum [2] = test: Herbicidal activity test against upland field weeds (soil treatment test); design: key to Soil treatment herbicidal activity, Sorghum: 0 (no control); 100 (complete control); settings: 50 g ai/ha, scale 0 (no control) to 100 (complete control)
Protocol: (§2) Experimental Example 2: Herbicidal Activity Test Against Upland Field Weeds (Soil Treatment Test) Soil treatment was performed as follows: After filling a square plastic pot having a surface area of 350 cm^2 with sandy loam mixed with 1 g per pot (350 cm^2) of horticultural mixed fertilizer (N:P:K=11:10:11), seeds (10˜15 grains) or rootstocks (2 pieces) of 5 kinds of grassy weeds of sorghum, barnyard grass, quack grass, crabgrass, fall panicum, and 5 kinds of broadleaf weeds of black nightshade, indian jointvetch, velvetleaf, cocklebur, bindweed, which had been stored in a low temperature (6° C.), were sown. The day after sowing, test compound solutions were made by diluting with a preparation solution (including 50% acetone, 0.1% Tween-20) so that the final treatment amount of the test compounds was 50 or 75 g a.i./ha. The prepared test compound solution was used for treating soil surface by hand-spraying 14 mL per pot in a fume hood. After the treatment, it was managed under the same greenhouse conditions (average temperature 30±5° C., light/dark=14/10 hours), and after 14 days (after 21 days if necessary), the external symptoms and efficacy were investigated according to the scale of 0 (no control) to 100 (complete control). The results of Table 8 were obtained by evaluating weed control value to the untreated control by conducting visual assessment.

corn = test: Phytotoxicity test for upland field crops (foliar treatment test); design: key: 0 (no harm); 9 (complete withered)
In short: (§3)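 Application rate ranged 19˜300 g a.i./ha, delivered as a foliar spray (100 ml/m^2) in 33% acetone with 0.1% Tween-20 to crops raised at 30±5 °C under 14/10 h light/dark. Symptoms were assessed 7 and 14 days post-treatment, extending to 21 days where necessary, using a 0–9 injury grade relative to untreated control.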

wheat = test: as above; design: key: 0 (no harm); 9 (complete withered)
In short: as §3

black nightshade [3] = test: Herbicidal activity test against upland field weeds (foliar treatment test); design: key to Foliar treatment herbicidal activity, black nightshade: 0 (no control); 100 (complete control); settings: 50 g ai/ha, scale 0-100
In short: as §1

quack grass [4] = test: as above; design: key to Foliar treatment herbicidal activity, quack grass: 0 (no control); 100 (complete control); settings: 50 g ai/ha, scale 0-100
In short: as §1

sorghum [5] = test: as above; settings: 50 g ai/ha, scale 0-100; for plant injury at 50 g/ha: Sorghum
In short: as §1

barnyard grass [6] = test: Herbicidal activity test against upland field weeds (soil treatment test); design: key to Soil treatment herbicidal activity, barnyard grass: 0 (no control); 100 (complete control); settings: 50 g ai/ha, scale 0 (no control) to 100 (complete control)
Protocol: as §2

velvetleaf [7] = test: Herbicidal activity test against upland field weeds (foliar treatment test); design: key to Foliar treatment herbicidal activity, velvet leaf: 0 (no control); 100 (complete control); settings: 50 g ai/ha; for Foliar treatment herbicidal activity, velvet leaf: scale 0-100
In short: as §1

cocklebur [8] = test: as above; settings: 50 g ai/ha, scale 0-100; for pest or weed control at 50 g/ha: Xanthium strumarium
In short: as §1

crabgrass [9] = test: as above; design: key to Foliar treatment herbicidal activity, Crabgrass: 0 (no control); 100 (complete control); settings: 50 g ai/ha, scale 0-100
In short: as §1

indian jointvetch [10] = test: Herbicidal activity test against upland field weeds (soil treatment test); design: key to Soil treatment herbicidal activity, Indian jointvetch: 0 (no control); 100 (complete control); settings: 50 g ai/ha, scale 0 (no control) to 100 (complete control)
Protocol: as §2

fall panicum [11] = test: as above; design: key to Soil treatment herbicidal activity, Fall panicum: 0 (no control); 100 (complete control); settings: 50 g ai/ha, scale 0 (no control) to 100 (complete control)
Protocol: as §2

quack grass [12] = test: as above; design: key to Soil treatment herbicidal activity, quack grass: 0 (no control); 100 (complete control); settings: 50 g ai/ha, scale 0 (no control) to 100 (complete control)
Protocol: as §2

crabgrass [13] = test: as above; design: key to Soil treatment herbicidal activity, Crabgrass: 0 (no control); 100 (complete control); settings: 50 g ai/ha, scale 0 (no control) to 100 (complete control)
Protocol: as §2

barnyard grass [14] = test: Herbicidal activity test against upland field weeds (foliar treatment test); design: key to Foliar treatment herbicidal activity, barnyard grass: 0 (no control); 100 (complete control); settings: 50 g ai/ha, scale 0-100; for pest or weed control at 50 g/ha: Echinochloa crus-galli
In short: as §1

bindweed [15] = test: Herbicidal activity test against upland field weeds (soil treatment test); design: key to Soil treatment herbicidal activity, Bindweed: 0 (no control); 100 (complete control); settings: 50 g ai/ha, scale 0 (no control) to 100 (complete control)
Protocol: as §2

fall panicum [16] = test: Herbicidal activity test against upland field weeds (foliar treatment test); settings: 50 g ai/ha, scale 0-100; for pest or weed control at 50 g/ha: Panicum dichotomiflorum
In short: as §1

black nightshade [17] = test: Herbicidal activity test against upland field weeds (soil treatment test); design: key to Soil treatment herbicidal activity, black nightshade: 0 (no control); 100 (complete control); settings: 50 g ai/ha, scale 0 (no control) to 100 (complete control); for pest or weed control at 50 g/ha: Solanum nigrum
Protocol: as §2

bindweed [18] = test: Herbicidal activity test against upland field weeds (foliar treatment test); design: key to Foliar treatment herbicidal activity, Bindweed: 0 (no control); 100 (complete control); settings: 50 g ai/ha, scale 0-100
In short: as §1

velvetleaf [19] = test: Herbicidal activity test against upland field weeds (soil treatment test); design: key to Soil treatment herbicidal activity, velvet leaf: 0 (no control); 100 (complete control); settings: 50 g ai/ha, scale 0 (no control) to 100 (complete control)
Protocol: as §2

cocklebur [20] = test: as above; design: key to Soil treatment herbicidal activity, Cocklebur: 0 (no control); 100 (complete control); settings: 50 g ai/ha, scale 0 (no control) to 100 (complete control)
Protocol: as §2

[21] = 50 g ai/ha, Corn (7 days after treatment)
[22] = 50 g ai/ha, Corn (14 days after treatment)
[23] = 100 g ai/ha, Corn (7 days after treatment)
[24] = 100 g ai/ha, Corn (14 days after treatment)
[25] = 50 g ai/ha, Wheat (7 days after treatment)
[26] = 50 g ai/ha, Wheat (14 days after treatment)
[27] = 100 g ai/ha, Wheat (7 days after treatment)
[28] = 100 g ai/ha, Wheat (14 days after treatment)

| Structure (SMILES) | pest or weed control at 50 g/ha (indian jointvetch [1]) [%] | Foliar treatment phytotoxicity, Corn (corn; [21]) | Foliar treatment phytotoxicity, Corn (corn; [22]) | Foliar treatment phytotoxicity, Corn (corn; [23]) | Foliar treatment phytotoxicity, Corn (corn; [24]) | Foliar treatment phytotoxicity, Wheat (wheat; [25]) | Foliar treatment phytotoxicity, Wheat (wheat; [26]) | Foliar treatment phytotoxicity, Wheat (wheat; [27]) | Foliar treatment phytotoxicity, Wheat (wheat; [28]) | Foliar treatment herbicidal activity, black nightshade (black nightshade [3]) | Foliar treatment herbicidal activity, quack grass (quack grass [4]) | Soil treatment herbicidal activity, barnyard grass (barnyard grass [6]) | Soil treatment herbicidal activity, Indian jointvetch (indian jointvetch [10]) | Soil treatment herbicidal activity, Fall panicum (fall panicum [11]) | Soil treatment herbicidal activity, quack grass (quack grass [12]) | Soil treatment herbicidal activity, Crabgrass (crabgrass [13]) | Soil treatment herbicidal activity, velvet leaf (velvetleaf [19]) | Soil treatment herbicidal activity, Sorghum (sorghum [2]) | Foliar treatment herbicidal activity, velvet leaf (velvetleaf [7]) | Foliar treatment herbicidal activity, Crabgrass (crabgrass [9]) | further results |
| --- | --- | --- | --- | --- | --- | --- | --- | --- | --- | --- | --- | --- | --- | --- | --- | --- | --- | --- | --- | --- | --- |
| Cn1nnc(CSCc2nc(C(F)(F)F)ccc2C(=S)Nc2nnnn2C)n1 [Compound No. 2-107, N-(1-methyl-1H-tetrazol-5-yl)-2-((((2-methyl-2H-tetrazol-5-yl)methyl)thio)methyl)-6-(trifluoromethyl)pyridin-3-carbothioamide] | 98 | 1 | 0 | 0 | 0 | 3 | 3 | 4 | 3 | 100 | 0 | 0 | 0 | 0 | 0 | 0 | 100 | – | – | – | plant injury at 50 g/ha (sorghum [2]; Sorghum): 20%; plant injury at 50 g/ha (sorghum [5]): 70%; pest or weed control at 50 g/ha (velvetleaf [7]; Abutilon theophrasti, scale 0-100, read-out: Foliar treatment herbicidal activity, velvet leaf): 70%; pest or weed control at 50 g/ha (cocklebur [8]): 98%; pest or weed control at 50 g/ha (crabgrass [9]; Digitaria sanguinalis): 95%; pest or weed control at 50 g/ha (barnyard grass [14]): 70%; pest or weed control at 50 g/ha (bindweed [15]): 40%; pest or weed control at 50 g/ha (fall panicum [16]): 60%; pest or weed control at 50 g/ha (black nightshade [17]): 70%; pest or weed control at 50 g/ha (bindweed [18]): 98% |
| CSc1nc(COCc2nc(C(F)(F)F)ccc2C(=O)Nc2nnnn2C)nn1C [Compound No. 2-131, N-(1-methyl-1H-tetrazol-5-yl)-2-(((1-methyl-5-(methylthio)-1H-1,2,4-triazol-3-yl)methoxy)methyl)-6-(trifluoromethyl)nicotinamide] | 70 | – | – | – | – | – | – | – | – | 100 | – | 0 | 100 | – | 0 | 0 | – | 0 | 100 | 100 | pest or weed control at 50 g/ha (quack grass [4]): 10%; plant injury at 50 g/ha (sorghum [5]): 40%; pest or weed control at 50 g/ha (cocklebur [8]): 80%; Soil treatment herbicidal activity, Cocklebur (cocklebur [20]): 0; pest or weed control at 50 g/ha (barnyard grass [14]): 98%; pest or weed control at 50 g/ha (fall panicum [16]): 70%; pest or weed control at 50 g/ha (black nightshade [17]): 98%; pest or weed control at 50 g/ha (velvetleaf [19]; Abutilon theophrasti, read-out: Soil treatment herbicidal activity, velvet leaf): 98% |
| COC(=O)OC(C)N(C(=O)c1ccc(C(F)(F)F)nc1CSCc1nnn(C)n1)c1nnnn1C (stereo not drawn) [Compound No. 4-3, methyl(1-(N-(1-methyl-1H-tetrazol-5-yl)-2-((((2-methyl-2H-tetrazol-5-yl)methyl)thio)methyl)-6-(trifluoromethyl)nicotinamido)ethyl)carbonate] | – | 0 | 0 | 1 | 0 | 0 | 0 | 0 | 0 | 100 | 0 | 0 | 0 | 0 | 0 | 98 | 50 | 0 | 98 | 98 | Foliar treatment herbicidal activity, Indian jointvetch (indian jointvetch [1]): 100; Foliar treatment herbicidal activity, Sorghum (sorghum [5]): 80; Foliar treatment herbicidal activity, Cocklebur (cocklebur [8]): 98; Foliar treatment herbicidal activity, barnyard grass (barnyard grass [14]): 98; Soil treatment herbicidal activity, Bindweed (bindweed [15]): 0; Foliar treatment herbicidal activity, Fall panicum (fall panicum [16]): 80; Soil treatment herbicidal activity, black nightshade (black nightshade [17]): 100; Foliar treatment herbicidal activity, Bindweed (bindweed [18]): 100 |
| CC(C)OC(=O)OC(C)N(C(=O)c1ccc(C(F)(F)F)nc1COCc1nnn(C)n1)c1nnnn1C (stereo not drawn) [Compound No. 4-12, isopropyl(1-(N-(1-methyl-1H-tetrazol-5-yl)-2-(((2-methyl-2H-tetrazol-5-yl)methoxy)methyl)-6-(trifluoromethyl)nicotinamido)ethyl)carbonate] | – | – | – | – | – | – | – | – | – | 100 | 0 | 100 | 40 | 90 | 0 | 100 | 100 | 20 | 100 | 95 | Foliar treatment herbicidal activity, Indian jointvetch (indian jointvetch [1]): 98; Foliar treatment herbicidal activity, Sorghum (sorghum [5]): 70; Foliar treatment herbicidal activity, Cocklebur (cocklebur [8]): 98; Foliar treatment herbicidal activity, barnyard grass (barnyard grass [14]): 100; Soil treatment herbicidal activity, Bindweed (bindweed [15]): 98; Foliar treatment herbicidal activity, Fall panicum (fall panicum [16]): 98; Soil treatment herbicidal activity, black nightshade (black nightshade [17]): 100; Foliar treatment herbicidal activity, Bindweed (bindweed [18]): 100 |
